Measurements from the NIST ThermoML archive (doi:10.1016/j.tca.2011.01.001).

Legend:
[1] = Molar enthalpy of transition or fusion; settings: Crystal; DSC

O=C(O)c1ccc(O)c(O)c1 [3,4-dihydroxybenzoic acid]
Settings	Molar enthalpy of transition or fusion [kcal/mol]
[1]	8.13

Settings	vapor or sublimation pressure [kPa]
381.8 K, Crystal, Torsion effusion method	6e-05
383 K, Crystal, Torsion effusion method	6.7e-05
384.5 K, Crystal, Torsion effusion method	7.7e-05
385.6 K, Crystal, Torsion effusion method	8.7e-05
387.2 K, Crystal, Torsion effusion method	0.000104
388.6 K, Crystal, Torsion effusion method	0.000117
390 K, Crystal, Torsion effusion method	0.000143
391.4 K, Crystal, Torsion effusion method	0.00016
392.8 K, Crystal, Torsion effusion method	0.000191
394.2 K, Crystal, Torsion effusion method	0.000216
395.4 K, Crystal, Torsion effusion method	0.000251
396.9 K, Crystal, Torsion effusion method	0.000286
398.3 K, Crystal, Torsion effusion method	0.00033
399.8 K, Crystal, Torsion effusion method	0.000377
401.2 K, Crystal, Torsion effusion method	0.000465
402.6 K, Crystal, Torsion effusion method	0.000533
404 K, Crystal, Torsion effusion method	0.00061
405.4 K, Crystal, Torsion effusion method	0.000701
406.8 K, Crystal, Torsion effusion method	0.000804
407.7 K, Crystal, Torsion effusion method	0.000876
408.9 K, Crystal, Torsion effusion method	0.000997
485.2 K, Liquid, Non-isothermal TG	0.819
485.8 K, Liquid, Non-isothermal TG	0.807
486.2 K, Liquid, Non-isothermal TG	0.892
486.8 K, Liquid, Non-isothermal TG	0.868
487.2 K, Liquid, Non-isothermal TG	0.933
487.7 K, Liquid, Non-isothermal TG	0.902
488.1 K, Liquid, Non-isothermal TG	0.974
488.4 K, Liquid, Isothermal TG	0.983
488.7 K, Liquid, Non-isothermal TG	0.967
488.8 K, Liquid, Isothermal TG	1.007
489.1 K, Liquid, Non-isothermal TG	1.005
489.2 K, Liquid, Isothermal TG	1.027
489.6 K, Liquid, Isothermal TG	1.061
489.7 K, Liquid, Non-isothermal TG	1.033
490 K, Liquid, Isothermal TG	1.074
490.1 K, Liquid, Non-isothermal TG	1.129
490.4 K, Liquid, Isothermal TG	1.092
490.7 K, Liquid, Non-isothermal TG	1.087
490.8 K, Liquid, Isothermal TG	1.129
491.1 K, Liquid, Non-isothermal TG	1.188
491.2 K, Liquid, Isothermal TG	1.153
491.6 K, Liquid, Isothermal TG	1.192
491.7 K, Liquid, Non-isothermal TG	1.162
492 K, Liquid, Isothermal TG	1.22
492.2 K, Liquid, Non-isothermal TG	1.221
492.4 K, Liquid, Isothermal TG	1.254
492.7 K, Liquid, Non-isothermal TG	1.286
492.8 K, Liquid, Isothermal TG	1.28
493.1 K, Liquid, Non-isothermal TG	1.327
493.2 K, Liquid, Isothermal TG	1.32
493.6 K, Liquid, Isothermal TG	1.346
493.7 K, Liquid, Non-isothermal TG	1.298
494 K, Liquid, Isothermal TG	1.374
494.1 K, Liquid, Non-isothermal TG	1.375
494.4 K, Liquid, Isothermal TG	1.381
494.7 K, Liquid, Non-isothermal TG	1.365
494.8 K, Liquid, Isothermal TG	1.445
495 K, Liquid, Non-isothermal TG	1.494
495.2 K, Liquid, Isothermal TG	1.477
495.6 K, Liquid, Isothermal TG	1.482
495.7 K, Liquid, Non-isothermal TG	1.435
495.9 K, Liquid, Non-isothermal TG	1.566
496 K, Liquid, Isothermal TG	1.529
496.4 K, Liquid, Isothermal TG	1.557
496.7 K, Liquid, Non-isothermal TG	1.477
496.8 K, Liquid, Isothermal TG	1.584
496.9 K, Liquid, Non-isothermal TG	1.652
497.2 K, Liquid, Isothermal TG	1.607
497.6 K, Liquid, Isothermal TG	1.636
497.7 K, Liquid, Non-isothermal TG	1.634
498 K, Liquid, Isothermal TG	1.682
498 K, Liquid, Non-isothermal TG	1.745
498.4 K, Liquid, Isothermal TG	1.699
498.8 K, Liquid, Isothermal TG	1.728
498.8 K, Liquid, Non-isothermal TG	1.703
499 K, Liquid, Non-isothermal TG	1.71
499.1 K, Liquid, Isothermal TG	1.751
499.5 K, Liquid, Isothermal TG	1.764
499.7 K, Liquid, Non-isothermal TG	1.817
499.9 K, Liquid, Non-isothermal TG	1.882
500 K, Liquid, Isothermal TG	1.815
500.4 K, Liquid, Isothermal TG	1.865
500.7 K, Liquid, Isothermal TG	1.879
500.7 K, Liquid, Non-isothermal TG	1.858
501 K, Liquid, Non-isothermal TG	1.898
501.2 K, Liquid, Isothermal TG	1.914
501.6 K, Liquid, Isothermal TG	1.939
501.7 K, Liquid, Non-isothermal TG	1.899
502 K, Liquid, Isothermal TG	1.945
502 K, Liquid, Non-isothermal TG	1.962
502.4 K, Liquid, Isothermal TG	2.003
502.7 K, Liquid, Non-isothermal TG	1.95
502.8 K, Liquid, Isothermal TG	2.047
503.1 K, Liquid, Non-isothermal TG	2.033
503.8 K, Liquid, Non-isothermal TG	2.014
504.1 K, Liquid, Non-isothermal TG	2.184
504.7 K, Liquid, Non-isothermal TG	2.179
505 K, Liquid, Non-isothermal TG	2.292
505.7 K, Liquid, Non-isothermal TG	2.217

Settings	Normal melting temperature [°C]
Crystal, DTA	201.8
